Experimental data: article PMC6391970, “Design, Synthesis and Characterization of Covalent KDM5 Inhibitors” (Angewandte Chemie (International Ed. in English), 2018)
Marks after values point to notes of the source that are not given here.

Tests used:
MDCK cells = conditions: Previously reported values in MDCK cells, A to B; cited from earlier work
KDM5B [1] = conditions: previously reported value, cited from earlier work
KDM5B (NanoLuc-KDM5B) = KDM5B (NanoLuc-KDM5B) (Homo sapiens, UniProt Q9UGL1); assay: NanoBRET cellular target engagement assay in HEK293 cells
Sequence of KDM5B (NanoLuc-KDM5B) (Q9UGL1 whole entry): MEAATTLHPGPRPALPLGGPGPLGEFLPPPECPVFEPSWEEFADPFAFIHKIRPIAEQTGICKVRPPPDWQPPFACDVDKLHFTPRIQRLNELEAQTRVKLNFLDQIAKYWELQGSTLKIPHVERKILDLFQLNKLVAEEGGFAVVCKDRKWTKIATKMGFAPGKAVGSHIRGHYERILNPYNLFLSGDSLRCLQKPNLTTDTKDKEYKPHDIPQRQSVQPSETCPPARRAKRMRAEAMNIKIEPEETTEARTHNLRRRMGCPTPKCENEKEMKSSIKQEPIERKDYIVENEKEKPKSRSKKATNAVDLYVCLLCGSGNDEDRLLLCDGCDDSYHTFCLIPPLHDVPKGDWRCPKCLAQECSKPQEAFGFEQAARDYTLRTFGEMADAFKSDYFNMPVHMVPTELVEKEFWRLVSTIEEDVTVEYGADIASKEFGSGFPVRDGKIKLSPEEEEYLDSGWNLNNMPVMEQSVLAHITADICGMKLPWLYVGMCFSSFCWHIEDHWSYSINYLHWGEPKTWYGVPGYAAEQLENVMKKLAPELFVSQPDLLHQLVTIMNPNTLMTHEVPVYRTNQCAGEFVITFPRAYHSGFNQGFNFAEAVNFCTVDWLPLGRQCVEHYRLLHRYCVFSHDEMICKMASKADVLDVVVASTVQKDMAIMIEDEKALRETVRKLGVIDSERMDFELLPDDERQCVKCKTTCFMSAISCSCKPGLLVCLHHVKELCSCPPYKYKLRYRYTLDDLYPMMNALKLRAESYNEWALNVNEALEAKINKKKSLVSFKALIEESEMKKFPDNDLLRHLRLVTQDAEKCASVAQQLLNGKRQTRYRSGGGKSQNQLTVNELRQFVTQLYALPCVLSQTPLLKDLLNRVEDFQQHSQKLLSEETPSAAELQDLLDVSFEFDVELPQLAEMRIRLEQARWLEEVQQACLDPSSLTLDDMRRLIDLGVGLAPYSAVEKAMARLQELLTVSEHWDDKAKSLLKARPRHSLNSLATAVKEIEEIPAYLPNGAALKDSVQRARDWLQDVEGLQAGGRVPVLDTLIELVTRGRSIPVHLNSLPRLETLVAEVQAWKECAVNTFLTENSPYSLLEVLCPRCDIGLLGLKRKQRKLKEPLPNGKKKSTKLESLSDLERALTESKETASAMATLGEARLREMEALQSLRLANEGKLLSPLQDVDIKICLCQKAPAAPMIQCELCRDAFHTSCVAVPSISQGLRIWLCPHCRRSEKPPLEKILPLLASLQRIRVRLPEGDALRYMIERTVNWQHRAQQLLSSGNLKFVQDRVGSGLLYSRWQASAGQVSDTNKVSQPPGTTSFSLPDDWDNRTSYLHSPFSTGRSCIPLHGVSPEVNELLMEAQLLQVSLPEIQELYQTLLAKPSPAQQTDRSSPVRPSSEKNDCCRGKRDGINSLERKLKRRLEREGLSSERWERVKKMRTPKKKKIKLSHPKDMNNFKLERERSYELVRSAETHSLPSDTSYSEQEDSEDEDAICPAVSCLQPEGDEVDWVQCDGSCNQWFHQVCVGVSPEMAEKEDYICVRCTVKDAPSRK

KDM5B [2] = target: T1, KDM5B (Homo sapiens, UniProt Q9UGL1, A373G/DEL102-140/DEL143-371/Q372G); assay: KDM5B 2-OG competition assay (AlphaScreen); format: biochemical; conditions: for IC50: AlphaScreen in vitro activity in KDM5B
T1 construct: A KDM5B construct encoding regions Phe26-Ile770 was amplified from an OriGene cDNA clone; 6x-histidine tag (TEV-cleavable) (N, cleaved yes); made in house; host or cells: Sf9 insect cells (baculovirus)
T1 sequence (Q9UGL1 with tags, fused parts or gaps DEL102-140/DEL143-371/Q372G/A373G): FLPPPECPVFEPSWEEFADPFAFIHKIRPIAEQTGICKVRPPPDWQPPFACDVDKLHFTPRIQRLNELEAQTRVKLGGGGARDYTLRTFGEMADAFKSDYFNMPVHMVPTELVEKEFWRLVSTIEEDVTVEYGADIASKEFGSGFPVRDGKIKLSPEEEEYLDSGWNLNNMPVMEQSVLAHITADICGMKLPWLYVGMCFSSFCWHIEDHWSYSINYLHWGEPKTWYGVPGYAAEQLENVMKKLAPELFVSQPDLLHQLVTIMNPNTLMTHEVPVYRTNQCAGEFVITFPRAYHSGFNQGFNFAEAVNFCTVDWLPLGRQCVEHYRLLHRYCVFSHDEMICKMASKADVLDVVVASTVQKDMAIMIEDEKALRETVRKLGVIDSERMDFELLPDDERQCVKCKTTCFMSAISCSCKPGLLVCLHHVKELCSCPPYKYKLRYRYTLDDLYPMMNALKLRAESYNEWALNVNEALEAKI
Method: (§1) KDM alpha screen selectivity
(§2) Inhibition of histone demethylases was assessed using the histone demethylase AlphaScreen assay (Amplified Luminescence Proximity Homogenous Assay) as previously reported.[4] The basis of this assay for lysine demethylases have been widely described.[5] In brief, the assay was performed in 384-well plate format using white proxiplates (PerkinElmer), and transfer of titrations of compounds (100 nl) was performed using an ECHO 550 acoustic dispenser […]
(§3) Tween- 20) containing the appropriate demethylase enzyme (see Supplementary table 1 for final concentrations) was transferred to each well of a 384-well proxiplate with a Multidrop™ Combi Reagent Dispenser, and the enzymes allowed to pre-incubate for 120 minutes with compound (final concentration of DMSO was 1%). After that time, the enzyme reaction was initiated by addition of 5 µl of a substrate mix consisting of Ketoglutarate (2-OG), Ferrous Ammonium Sulphate (FAS), L-Ascorbic Acid (LAA) and biotinylated peptide substrate (see Supporting table X for final assay concentrations) and the reaction incubated for the indicated time at room temperature. Reaction was stopped by the addition of 5 μl of assay buffer containing EDTA (7.5 mM) and NaCl (400 mM). Streptavidin Donor beads (0.08 mg/ml) and Protein-A conjugated acceptor beads (0.08 mg/ml) (AlphaScreen General IgG detection kit was from Perkin Elmer) were pre-incubated for 1 hour with an antibody to the product methyl mark (Supplementary Table 1) and the presence of biotin-H3-product was detected by addition of 5 µl of the pre-incubated AlphaScreen beads (final concentrations of 0.02 mg/ml with respect to acceptor and donor beads). Detection was allowed to proceed for 2 hour at room temperature and the assay plates read in a BMG Labtech Pherastar FS plate reader (excitation, 680 nm; emission, 570 […]
IC50(t) = Ki (1 + K ) . ( η . k .t − 1) (1)
KDM5B 2-OG competition assay
2-OG competition assay were performed as described for the general KDM5B AlphaScreen method above, varying the 2-OG concentrations from a range of 1mM to 0.5 μM. Data were normalized to the no enzyme control and the IC50 determined from the nonlinear regression curve fit using GraphPad Prism 7.

KDM5B [3] = target: T2, KDM5B (Homo sapiens, UniProt Q9UGL1); assay: Timecourse KDM5B AlphaScreen inhibition and kinact/Ki calculation; format: biochemical
T2 sequence (Q9UGL1 26-101 limits assumed): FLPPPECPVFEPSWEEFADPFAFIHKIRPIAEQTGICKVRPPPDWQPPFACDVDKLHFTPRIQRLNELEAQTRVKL
T2 sequence (Q9UGL1 374-770 limits assumed): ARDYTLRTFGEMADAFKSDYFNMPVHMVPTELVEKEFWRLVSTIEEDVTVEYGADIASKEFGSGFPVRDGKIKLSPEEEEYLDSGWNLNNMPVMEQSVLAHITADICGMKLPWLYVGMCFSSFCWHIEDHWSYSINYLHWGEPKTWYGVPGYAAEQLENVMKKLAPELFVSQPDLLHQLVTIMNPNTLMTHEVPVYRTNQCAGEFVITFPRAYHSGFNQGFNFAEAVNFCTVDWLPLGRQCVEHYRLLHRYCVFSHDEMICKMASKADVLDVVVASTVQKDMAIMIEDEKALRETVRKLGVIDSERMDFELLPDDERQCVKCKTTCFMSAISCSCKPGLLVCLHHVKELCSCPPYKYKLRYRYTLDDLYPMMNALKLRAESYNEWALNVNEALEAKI
Method: These parameters were calculated by using an established method to derive K i and k inact directly from time‐dependant IC50 values (Table S1). […]
as §1, §2
as §3, with “570 nm). Data were normalized to the no enzyme control and the IC50 determined from the nonlinear regression curve fit” for “570”
Timecourse KDM5B inhibition and Kinact/Ki calculations
The timecourse alphascreen assay was performed using the conditions described in the AlphaScreen section for KDM5B but with different pre-incubation times (from 0 to 120 min) for the enzyme with compound. Data were normalized to the no enzyme control and the IC50 for each timepoint was determined from the nonlinear regression curve fit using GraphPad Prism 7. The Ki and kinact were calculated through a least squares fit of the obtained IC50 at the different timepoints into the equation below which was derived by Krippendorff et al.[6] S is the H3K4me3 peptide substrate concentration of 0.1 µM and KM is the Michaelis-Menten constant for the substrate of 0.5 µM. XLFit software was used to compute the values of Ki and kinact. […]

Caco-2 permeability = format: in vitro ADME; conditions: human, Caco-2, Caco‐2 cells, A to B
KDM5B [4] = target: T1, KDM5B; assay: Covalent binding by MS (RapidFire intact mass, peptide mapping), KDM5B

IC50 (KDM5B (NanoLuc-KDM5B)) | Ki (KDM5B [3]) | k inact/K i (KDM5B [3]) | kinact (KDM5B [3]) | kinact/KI (KDM5B [3]; Table S1) | Papp A→B (Caco-2 permeability) | inhibitor reactive residue in KDM5B (peptide mapping, LCMS/MS) (KDM5B [4]; digestion of protein–inhibitor adduct) | Compound | P app (MDCK cells) | 2‐OG shift (KDM5B [1]) | IC50 (KDM5B [1]; read-out: IC50 (2‐OG 1 μM), KDM5B) | drop in potency with 2-OG concentration (KDM5B [2]; 2-OG from 0.5 μM up to 1000 μM) | IC50 (KDM5B [2]; IC50 (2‐OG 1 μM), 2-OG 1 μM) | IC50 (KDM5B [2]; IC50 (2‐OG 1 mM), 2-OG 1 mM) | covalent binding to KDM5B by intact MS (KDM5B [4]; protein 1 μM, compound 10 μM, 2 hours, 37 °C)
400 nM |  |  |  |  |  |  | CC(C)c1c(-c2ccccc2)[nH]c2c(C#N)cnn2c1=O [CPI‐455] | 17.2^[c] 10^−6 cm s^−1 | 2.0^[c] | 3 nM |  |  |  | 
> 30000 nM | 834 ± 79 nM | 1400 M⁻¹ s⁻¹ | 0.0012 ± 1.3e-05 s⁻¹ | 1400 ± 20 M⁻¹ s⁻¹ | < 1.5 ×10⁻⁶ cm/s | binding specifically to the desired C480 | C=CC(=O)N1CCN(CCc2cnn(-c3nccc4c(=O)[nH]cnc34)c2)CC1 [Compound 3] |  |  |  |  | 184 nM |  | major peak relating to protein–inhibitor adduct

Compound | IC50 (KDM5B (NanoLuc-KDM5B)) | Ki (KDM5B [3]) | k inact/K i (KDM5B [3]) | kinact (KDM5B [3]) | kinact/KI (KDM5B [3]; Table S1) | Papp A→B (Caco-2 permeability) | inhibitor reactive residue in KDM5B (peptide mapping, LCMS/MS) (KDM5B [4]; digestion of protein–inhibitor adduct) | P app (MDCK cells) | 2‐OG shift (KDM5B [1]) | IC50 (KDM5B [1]; read-out: IC50 (2‐OG 1 μM), KDM5B) | drop in potency with 2-OG concentration (KDM5B [2]; 2-OG from 0.5 μM up to 1000 μM) | IC50 (KDM5B [2]; IC50 (2‐OG 1 μM), 2-OG 1 μM) | IC50 (KDM5B [2]; IC50 (2‐OG 1 mM), 2-OG 1 mM) | covalent binding to KDM5B by intact MS (KDM5B [4]; protein 1 μM, compound 10 μM, 2 hours, 37 °C)
CC(C)c1c(-c2cnn(C(C)(C)C)c2)[nH]c2c(C#N)cnn2c1=O [Compound 1, reference compound] | 340 nM |  |  |  |  |  |  | 7.5^[c] 10^−6 cm s^−1 |  |  | 8 fold | 15 nM | 377 nM | 
